Data as given in patent US5292887A, “Substituted imidazole derivatives and their preparation and use” (priority 1988, dated 1994).

How the values were obtained:
α2-adrenoceptor [1] = target: T1, α2-adrenoceptor (Rattus norvegicus, UniProt P22909); assay: Reversal of detomidine-induced mydriasis in anaesthetized rat (α2-adrenoceptor antagonism); type: in vivo; conditions: dose producing 50 per cent reversal of detomidine-induced mydriasis; for ED50: iv
T1 construct: In anaesthetized rat, a standard dose of detomidine was administered intravenously; from tissue; host or cells: whole anaesthetized rat (pupil response, in vivo)
T1 sequence (P22909 1-465): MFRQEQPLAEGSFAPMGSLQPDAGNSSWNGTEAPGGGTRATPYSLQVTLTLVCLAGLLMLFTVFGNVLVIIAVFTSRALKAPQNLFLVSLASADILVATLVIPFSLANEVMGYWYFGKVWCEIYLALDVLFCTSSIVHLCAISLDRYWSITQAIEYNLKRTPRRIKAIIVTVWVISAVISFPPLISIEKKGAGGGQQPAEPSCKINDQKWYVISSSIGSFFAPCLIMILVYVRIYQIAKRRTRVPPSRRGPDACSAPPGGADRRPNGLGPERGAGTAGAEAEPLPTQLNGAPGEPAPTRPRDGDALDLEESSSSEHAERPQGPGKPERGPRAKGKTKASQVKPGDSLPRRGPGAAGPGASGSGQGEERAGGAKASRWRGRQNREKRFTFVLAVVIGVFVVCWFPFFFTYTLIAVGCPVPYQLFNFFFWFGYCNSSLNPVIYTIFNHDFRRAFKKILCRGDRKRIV

α1-adrenoceptor = target: T2, α1-adrenoceptor (Rattus norvegicus, UniProt P43140); assay: α1-adrenoceptor antagonism, phenylephrine-induced contraction of isolated anococcygeus muscle; conditions: vs phenylephrine, read-out: α1-antagonism (pA2 vs phenylephrine) (converted)
T2 sequence (P43140 1-466): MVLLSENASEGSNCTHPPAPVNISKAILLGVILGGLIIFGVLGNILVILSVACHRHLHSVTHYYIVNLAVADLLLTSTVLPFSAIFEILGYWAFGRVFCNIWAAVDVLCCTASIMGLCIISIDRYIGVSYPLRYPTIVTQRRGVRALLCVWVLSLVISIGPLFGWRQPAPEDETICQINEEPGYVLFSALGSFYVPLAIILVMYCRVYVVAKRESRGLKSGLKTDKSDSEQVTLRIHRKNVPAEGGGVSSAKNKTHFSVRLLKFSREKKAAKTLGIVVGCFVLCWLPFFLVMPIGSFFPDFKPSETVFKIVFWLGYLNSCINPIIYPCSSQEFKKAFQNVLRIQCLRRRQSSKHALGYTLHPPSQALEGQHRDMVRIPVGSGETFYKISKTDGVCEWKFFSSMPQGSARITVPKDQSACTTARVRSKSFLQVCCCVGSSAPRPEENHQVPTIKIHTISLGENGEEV
Experimental: 2. α1 -adrenoceptor antagonism
To obtain information also on the selectivity of the antagonist between α1 - and α2 -receptors, its ability to inhibit α1 -receptors was determined by means of isolated anococcygeus muscle (rat). The reference substances were now phenylephrine, a known α1 -agonist, and prazosin, a known α1 -antagonist. To determine α1 -antagonism, muscular contraction was induced by phenylephrine and the pA2 value of the studied compound was determined (Arunlakshana & Schild, Br. J. Pharmacol. 14, 48-62, 1959).

α2-adrenoceptor [2] = target: T1, α2-adrenoceptor; assay: Duration of the α2-blocking action (time for antagonism of detomidine mydriasis to fall by half, oral); type: in vivo; conditions: oral at equipotent doses, time taken for antagonism of 0,1 mg/kg detomidine mydriasis to fall by half
Experimental: It is known that in the rat α2 -agonists induce dilatation of the pupil (mydriasis) which effect is transmitted via postsynaptic α2 -receptors. In anaesthetized rat, a standard dose of detomidine was administered intravenously. Thereafter increasing doses of the studied antagonist were injected intravenously and the reversal of detomidine-induced mydriasis was followed. The ED50 value of the antagonist, i.e. the dose producing a 50 per cent reversal, was determined.
The duration of the α2 -blocking action of the compounds was determined as follows: the antagonists were administered orally at eqvipotent doses to groups of 4 rats 1, 2, 4, 7 or 16 hours before induction of anaesthesia and challenge with cumulative i.v. dosing of detomidine. By calculating the percentage antagonism of the mydriatic effect of 0,1 mg/kg detomidine for each pretreatment group, a time-effect relationship was established. This in turn permitted the measurement of the time taken for the antagonist effect to fall by half.

[3] = tested on: isolated rat pancreas (postsynaptic α2-adrenoceptors); assay: Potentiation of insulin release from isolated perfused pancreas; design: species or system rat (Sprague-Dawley); conditions: 1 × 10^-6 M, 11 mM glucose; for Insulin in the perfusate, -5 min: before compound addition
Experimental: 3. Potentiation of insulin release from isolated pancreas
Samples for determination of insulin concentration in the perfusate were collected before and during 30 min after adding the studied compounds+glucose. Insulin was measured by a RIA-kit (NOVO).

| ED50 (α2-adrenoceptor [1]) | Kb (α1-adrenoceptor) | Duration of α2-antagonism (α2-adrenoceptor [2]) | SMILES | Insulin in the perfusate, +1 min [3] | Insulin in the perfusate, +10 min [3] | Insulin in the perfusate, +20 min [3] | Insulin in the perfusate, +30 min [3] | Insulin in the perfusate, -5 min [3] | α2-antagonism (ED50 vs detomidine) (α2-adrenoceptor [1]; i.v.) |
| --- | --- | --- | --- | --- | --- | --- | --- | --- | --- |
| 0.2 mg/kg | > 10 µM |  | OCC1(c2c[nH]cn2)Cc2ccccc2C1 [compound 6, [2,3-dihydro-2-(1H-imidazol-4-yl)-1H-inden-2-yl]methanol] |  |  |  |  |  |  |
| 0.2 mg/kg | > 10 µM | 16.0 h | CCn1cnc(C2(CC)Cc3ccccc3C2=O)c1 (stereo not drawn) [compound 12, 2-ethyl-2-(1-ethyl-1H-imidazol-4-yl)-1-indanone] |  |  |  |  |  |  |
| 0.3 mg/kg | 7.94 µM | 2.0 h | CCC1(c2cn(C)cn2)Cc2ccccc2C1 [compound 1, 4-(2-ethyl-2,3-dihydro-1H-inden-2-yl)-1-methyl-1H-imidazole] |  |  |  |  |  |  |
| 0.3 mg/kg | 6.31 µM |  | CCCn1cnc(C2(CC)Cc3ccccc3C2)c1 [compound 3, 4-(2-ethyl-2,3-dihydro-1H-inden-2-yl)-1-n-propyl-1H-imidazole] |  |  |  |  |  |  |
| 0.3 mg/kg | > 10 µM |  | CCCC1(c2cn(C)cn2)Cc2ccccc2C1 [compound 9, 4-(2,3-dihydro-2-n-propyl-1H-inden-2-yl)-1-methyl-1H-imidazole] |  |  |  |  |  |  |
| 0.1 mg/kg | > 10 µM | 11.0 h | CCC1(c2cn(C)cn2)Cc2ccccc2C1=O (stereo not drawn) [compound 5, 2-ethyl-2-(1-methyl-1H-imidazol-4-yl)-1-indanone] |  |  |  |  |  |  |
| 2 mg/kg | 1 µM |  | CCC1(c2cn(Cc3ccccc3)cn2)Cc2ccccc2C1 [compound 4, 1-benzyl-4-(2-ethyl-2,3-dihydro-1H-inden-2-yl)-1H-imidazole] |  |  |  |  |  |  |
| 0.2 mg/kg | 6.31 µM |  | CCn1cnc(C2(CC)Cc3ccccc3C2)c1 [compound 2, 1-ethyl-4-(2-ethyl-2,3-dihydro-1H-inden-2-yl)-1H-imidazole] |  |  |  |  |  |  |
| 0.1 mg/kg | > 10 µM | 7.0 h | CCn1cnc(C2(COC)Cc3ccccc3C2)c1 [compound 11, 1-ethyl-4-(2,3-dihydro-2-methoxymethyl-1H-inden-2-yl)-1H-imidazole] |  |  |  |  |  |  |
| 0.3 mg/kg | > 10 µM | 7.0 h | CCn1cnc(C2(CO)Cc3ccccc3C2)c1 [compound 10, [2-(1-ethyl-1H-imidazol-4-yl)-2,3-dihydro-1H-inden-2-yl]methanol] |  |  |  |  |  |  |
| 0.3 mg/kg | > 10 µM |  | CCCC1(c2cn(CC)cn2)Cc2ccccc2C1 [compound 8, 1-ethyl-4-(2,3-dihydro-2-n-propyl-1H-inden-2-yl)-1H-imidazole] |  |  |  |  |  |  |
| 0.3 mg/kg | > 10 µM | 7.0 h | COCC1(c2cn(C)cn2)Cc2ccccc2C1 [compound 7, 4-(2,3-dihydro-2-methoxymethyl-1H-inden-2-yl)-1-methyl-1H-imidazole] | 26.0 ng/mL | 11.5 ng/mL | 15.9 ng/mL | 22.0 ng/mL | < 0.1 ng/mL |  |

| SMILES | ED50 (α2-adrenoceptor [1]) | Kb (α1-adrenoceptor) | Duration of α2-antagonism (α2-adrenoceptor [2]) | Insulin in the perfusate, +1 min [3] | Insulin in the perfusate, +10 min [3] | Insulin in the perfusate, +20 min [3] | Insulin in the perfusate, +30 min [3] | Insulin in the perfusate, -5 min [3] | α2-antagonism (ED50 vs detomidine) (α2-adrenoceptor [1]; i.v.) |
| --- | --- | --- | --- | --- | --- | --- | --- | --- | --- |
| CCC1(c2cnc[nH]2)Cc2ccccc2C1 [atipamezole, reference compound] |  | > 10 µM | 1.0 h | 5.0 ng/mL | 3.0 ng/mL | 6.3 ng/mL | 15.1 ng/mL | < 0.1 ng/mL |  |
| c1ccc2c(c1)OCC(C1=NCCN1)O2 (stereo not drawn) [idazoxan, reference compound] |  | 5.01 µM | < 1 h |  |  |  |  |  | 0.02 mg/kg |
